The source of these data is patent US10787423B2, “Piperazine and piperidine derivatives, their synthesis and use thereof in inhibiting VDAC oligomerization, apoptosis and mitochondria dysfunction” (THE NATIONAL INSTITUTE FOR BIOTECHNOLOGY IN THE NEGEV LTD., priority 2015, dated 2020).

Where two headings read alike, the source gives them in different places.

For series [1], the target named is T1, VDAC1 (Homo sapiens, UniProt P21796). Put plainly: Selenite-induced VDAC1 oligomerization by EGS cross-linking and immunoblot in HEK-293 cells (Method B). The following applies: HEK-293 cells, compound 2 h then selenite 15 μM 4 h; means±SD (n=3); read-out: VDAC1 oligomerization IC50. Set-up: endogenous in cells; host or cells: HEK-293. Type of series: cell-based. The protocol:
(§1) Appropriate test cells (2.5-3 mg/ml) in PBS, were harvested after the treatment and incubated with the cross-linking reagent EGS at a ratio of 100-300 μM for sample of 2-3 mg protein/ml concentration (pH 8.3) for 15 minutes. Protein concentration was determined according to Lowry assay. Samples (60-80 μg protein) were subjected to SDS-PAGE by a standard technique and immunoblotting was performed using anti-VDAC1 antibodies. Gels were electro-transferred onto nitrocellulose membranes for immuno-staining. The membranes were incubated with a blocking solution containing 5% non-fat dry milk and 0.1% Tween-20 in Tris-buffered saline, followed by incubation with monoclonal anti-VDAC1, anti-Cytochrome c, anti-AIF or anti-actin antibodies. Membranes were then incubated with HRP-conjugated anti-mouse or anti-rabbit IgG (1:10,000), serving as secondary antibodies. Antibody labeling was detected by chemiluminescence. To detect VDAC1 oligomers, membranes were treated with 0.1 M glycine, pH 2.0, prior to immunoblotting and washed several times with 0.1% Tween-20 in Tris-buffered saline. Quantitative analysis of immuno-reactive VDAC1 dimer, trimer and multimer bands was performed using FUSION-FX (Vilber Lourmat, France).
The closed circle (●) indicates VBIT-4 (compound of Formula 1), the open circle (◯) indicates compound of Formula 10, and an open square (□) indicates VBIT-3 (compound of Formula 2).
d. IC50 values of the tested compounds were derived from the obtained data. The results shown correspond to means±SD (n=3).

A short description of series [2]: IC50 for several activities / effective range (activity not specified). Conditions: quoted for comparison with brain levels.
Series [3] addresses T2, purified VDAC1 (Rattus norvegicus, UniProt Q9Z2L0).
T2 construct: rat liver mitochondria (5 mg/ml) in 10 mM Tris-HCl, pH 7.2, were incubated with 2% LDAO; from tissue; host or cells: rat liver mitochondria
Put plainly: Microscale thermophoresis (MST) binding to purified VDAC1. The following applies: MST, purified VDAC1 133 nM, 20 min incubation; means±SD (n=3); read-out: VDAC1 binding affinities. On the technique in general: MST reads how a fluorescent partner responds to local heating, with and without ligand.
Protocol: To obtain quantitative parameters of this interaction and derive a dissociation constant, e.g. a microscale thermophoresis (MST) interaction assay may be performed. In this manner, dissociation values are derived from the curves showing the affinity of the compounds of the invention to VDAC.
Briefly, rat liver mitochondria (5 mg/ml) in 10 mM Tris-HCl, pH 7.2, were incubated with 2% LDAO at 0° C. for 20 min, followed by centrifugation (30 min, 14,000 g) and the obtained supernatant was loaded onto a dry celite:hydroxyapatite (2:1) column. VDAC1 was eluted with a solution containing 2% LDAO, 10 mM Tris-HCl, pH 7.2, 50 mM NaCl, and 20 to 22 mM NaH2PO4, with VDAC1 detection by Coomassie blue staining. The VDAC1-containing fractions were dialyzed against 10 mM Tris-HCl, pH 7.2, and subjected to a second chromatography step on a carboxymethyl-cellulose (CMC) column from which VDAC1 was eluted with a solution containing 10 mM Tris-HCl, pH 7.2, 0.1% LDAO and 500 mM NaCl, detected as above. The VDAC1-containing fractions were collected and used for VDAC1 channel conductance and MST assays.
MST analysis was performed using a NanoTemper Monolith NT.115 apparatus. […]
Purified VDAC1 (133 nM), labeled using the NanoTemper fluorescent protein-labeling Kit BLUE (Nano Temper technologies, Munich, Germany), according to the manufactory instructions, was incubated with increasing concentrations of the following tested compounds: compound of Formula 10 (AKOS-022), compound of Formula 2 (VBIT-3), or racemic compound of Formula 1 (VBIT-4). After 20 min of incubation, the samples (3-5 μL) were loaded into MST-grade glass capillaries (Monolith NT Capillaries), and the thermophoresis process was measured using the Monolith-NT115 apparatus.
Fmax and Fmin represent the maximal and minimal fluorescence, respectively and F the fluorescence measured in the presence of the tested compound.
VDAC1 binding affinities of tested compounds were calculated from the MST measurements.

Series [4] can be described thus: Brain penetration after oral gavage, HPLC/MS of brain extracts. Type of series: in vivo, C57BL/6 mice. Conditions: for concentration at 24 h: C57BL/6, mouse, brain, oral, 50 mg/kg, mouse, read-out: Compounds in brain extract. The protocol: C57BL/6 mice ([…]) were used. The animals received treatments with either free compounds of Formulae 1 and 10, or encapsulated compounds, prepared according to the Examples 16 and 17. Doses as indicated in the Table 4 below were administered in phosphate-buffered saline (PBS) through an oral gavage. After 12 hours and 24 hours, randomly selected mice from each group were sacrificed, their brains collected and stored in −80° C. The concentrations of the compounds in the tissues were determined by HPLC/MS analysis.
Tissue samples were homogenized in phosphate-buffered saline solution, then diluted with acetonitrile to 50% v/v, centrifuged at 10,000 g for 10 minutes, and supernatants were analyzed. The compounds concentrations in the brain extracts were determined from calibration curves. The results were the averaged from 2 mice for each treatment group/time point.

In series [5] the test system is SHSY5Y cells. Put plainly: 6-hydroxydopamine-induced cell toxicity, XTT cell viability. Conditions: for IC50: Homo sapiens, SH-SY5Y, 24 h, read-out: IC50 (cell viability protection). It counts as cell-based. The protocol: SHSY5Y (obtained from ATCC) were grown at 37° C. under an atmosphere of 95% air and 5% CO2 in DMEM medium supplemented with 10% fetal bovine serum, 2 mM L-glutamine, 1000 U/ml penicillin, and 1 mg/ml streptomycin until 60-70% of confluence. Further, the cells were incubated with increasing concentrations of 6-hydroxydopamine. After 24 hours, and cells viability was assayed using the XTT (2,3-bis-(2-methoxy-4-nitro-5-sulfophenyl)-2H-tetrazolium-5-carboxanilide) method, according to the supplier instructions. […] The 50% decrease in cell survival was obtained at about 50 μM of 6-hydroxydopamine.
Cell viability as assayed following 24 h incubation with different concentrations of 6-hydroxydopamine in the absence (closed squares (▪)) or in the presence of VBIT-12 (15 μM, closed circles (●)) is shown.
Similarly, cells that were incubated with increasing concentrations of VBIT-12 in presence of either 30 or 50 μM of 6-hydroxydopamine that decreased cell viability by […], respectively, remained viable after 24 hours of the incubation. Cells viability is charted in FIG. 24C versus the concentrations of VBIT-12. Closed squares (▪) indicate control group without 6-hydroxydopamine, open circles (◯) indicates cells' viability when exposed to 30 μM of the 6-hydroxydopamine, and closed circles (●) indicate cells viability at 50 μM of the 6-hydroxydopamine.

Series [6] addresses T1, VDAC1. Put plainly: Selenite-induced VDAC1 oligomerization in HeLa cells, EGS cross-linking. Type of series: cell-based. Set-up: endogenous in cells; host or cells: HeLa. The following applies: 22 h with selenite 8 μM and increasing concentrations. The protocol:
as §1, with “To detect VDAC1 oligomers, membranes were treated with 0.1 M glycine, pH 2.0, prior to immunoblotting and washed several times with 0.1% Tween-20 in Tris-buffered saline.” left out
Cells (2.5 mg/ml) were washed with and resuspended in PBS, pH 8.3 and incubated with membrane-permeable cross-linker EGS (250 μM) at 30° C. for 15 min and then subjected to SDS-PAGE and immunoblotting using anti-VDAC1 antibodies. […] Cell death was analyzed using propidium iodide (PI) staining and flow cytometry.

T1 sequence (P21796 whole entry): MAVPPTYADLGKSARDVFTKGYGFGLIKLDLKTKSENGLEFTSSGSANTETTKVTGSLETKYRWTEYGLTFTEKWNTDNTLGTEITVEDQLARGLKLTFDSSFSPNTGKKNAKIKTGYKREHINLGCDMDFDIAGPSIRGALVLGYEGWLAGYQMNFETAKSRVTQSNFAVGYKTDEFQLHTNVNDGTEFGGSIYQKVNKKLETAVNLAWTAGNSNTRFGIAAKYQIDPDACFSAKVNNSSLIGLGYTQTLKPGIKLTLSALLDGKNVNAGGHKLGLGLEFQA
T2 sequence (Q9Z2L0 whole entry): as the sequence (P21796 whole entry) above, with T55N, M129V, A160S, I227V counted along it

Regarding `O=C(CC(CO)N1CCN(c2ccc(OC(F)(F)F)cc2)CC1)Nc1ccc(Cl)cc1` (racemic) [Formula 1, N-(4-chlorophenyl)-4-hydroxy-3-(4-(4-(trifluoromethoxy)phenyl)-piperazin-1-yl)butanamide], the 50% inhibitory concentration (IC50) (usually the concentration needed to halve the response being measured) in series [1] came to 1900 nM; in series [2], 1000 nM. In addition, the Kd in series [3] came out at 17000 ± 5300 nM. In addition, the concentration at 24 h in series [4] (50 mg/kg in PLGA nanoparticles, oral gavage) is 190 ± 70 nM; in series [4] (50 mg/kg oral gavage, free compound) it was 120 ± 20 nM. Also, the brain penetration result in series [4] (given orally, in solution or encapsulated in PLGA nano-particles) is “reached the brain”.
As for `O=C(O)CNC(=O)C1(Nc2ccccc2)CCN(Cc2cccc3ccccc23)CC1` [Formula 3], in series [5] (15 μM VBIT-12, 24 h, different 6-hydroxydopamine concentrations), the “protection against 6-hydroxydopamine-induced decreased cell viability” value is “protected against the reduction of cell survival by all 6-hydroxydopamine concentration used”. Besides, the IC50 in series [5] (30 μM 6-hydroxydopamine) is approximately 1000 nM; in series [5] (50 μM 6-hydroxydopamine), approximately 2000 nM. Moreover, the “selenite-induced VDAC1 oligomerization” value in series [6] is on record as “Inhibited”.
